Source: patent US8633204B2 (Pfizer Inc., priority 2006, dated 2014)
pIC50: −log10 of the molar value.

Tests used:
[1] = tested on: PI3-K in BT20 cells (phosphorylation of AKT at serine 473); assay: PI3-Kα Cellular Assay (AKT Ser473 phosphorylation ELISA in BT20 cells); assay type: cell-based, human; conditions: Homo sapiens, BT-20, pAKT Ser473 ELISA, 1 hour incubation
Procedure, shortened: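 Cells seeded overnight in 0.5% FBS, then exposed 1 h at 37 °C to an 11-concentration 1:3 dilution series, in duplicate.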

PI3-Kα = PI3-Kα (Mus musculus (Mouse), UniProt P42337); assay: PI3-Kα Biochemical Assay (fluorescence polarization kinase assay)
PI3-Kα, sequence (P42337 whole entry, the tested form may be a part): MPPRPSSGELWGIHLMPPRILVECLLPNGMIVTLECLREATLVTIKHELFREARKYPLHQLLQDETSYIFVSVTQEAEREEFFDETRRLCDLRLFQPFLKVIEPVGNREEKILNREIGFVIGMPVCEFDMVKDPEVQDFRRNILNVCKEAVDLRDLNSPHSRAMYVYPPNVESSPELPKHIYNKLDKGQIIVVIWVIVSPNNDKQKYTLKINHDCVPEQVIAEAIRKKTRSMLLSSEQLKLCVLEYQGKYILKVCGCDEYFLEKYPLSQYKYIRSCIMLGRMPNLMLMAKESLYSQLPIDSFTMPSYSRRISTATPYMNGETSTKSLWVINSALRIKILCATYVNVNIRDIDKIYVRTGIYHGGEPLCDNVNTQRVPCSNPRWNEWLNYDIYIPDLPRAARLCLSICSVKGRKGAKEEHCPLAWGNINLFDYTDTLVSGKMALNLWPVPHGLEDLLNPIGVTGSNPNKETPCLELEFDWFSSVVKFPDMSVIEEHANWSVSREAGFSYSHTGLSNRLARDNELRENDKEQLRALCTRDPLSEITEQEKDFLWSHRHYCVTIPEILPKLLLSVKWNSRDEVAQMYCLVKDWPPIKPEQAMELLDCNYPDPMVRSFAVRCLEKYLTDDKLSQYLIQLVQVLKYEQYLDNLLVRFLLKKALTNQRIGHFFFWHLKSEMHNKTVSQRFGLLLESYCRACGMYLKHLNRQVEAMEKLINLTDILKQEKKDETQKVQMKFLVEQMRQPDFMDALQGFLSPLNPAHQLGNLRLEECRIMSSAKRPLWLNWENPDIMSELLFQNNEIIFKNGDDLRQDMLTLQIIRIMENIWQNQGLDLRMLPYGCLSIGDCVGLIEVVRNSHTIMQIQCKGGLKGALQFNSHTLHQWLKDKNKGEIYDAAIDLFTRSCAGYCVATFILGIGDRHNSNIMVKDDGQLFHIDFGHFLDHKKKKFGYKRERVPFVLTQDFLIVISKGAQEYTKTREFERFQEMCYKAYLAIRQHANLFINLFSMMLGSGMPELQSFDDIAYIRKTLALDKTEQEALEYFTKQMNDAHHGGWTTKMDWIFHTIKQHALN
PI3-Kα, sequence (P26450 whole entry partner, the tested form may be a part): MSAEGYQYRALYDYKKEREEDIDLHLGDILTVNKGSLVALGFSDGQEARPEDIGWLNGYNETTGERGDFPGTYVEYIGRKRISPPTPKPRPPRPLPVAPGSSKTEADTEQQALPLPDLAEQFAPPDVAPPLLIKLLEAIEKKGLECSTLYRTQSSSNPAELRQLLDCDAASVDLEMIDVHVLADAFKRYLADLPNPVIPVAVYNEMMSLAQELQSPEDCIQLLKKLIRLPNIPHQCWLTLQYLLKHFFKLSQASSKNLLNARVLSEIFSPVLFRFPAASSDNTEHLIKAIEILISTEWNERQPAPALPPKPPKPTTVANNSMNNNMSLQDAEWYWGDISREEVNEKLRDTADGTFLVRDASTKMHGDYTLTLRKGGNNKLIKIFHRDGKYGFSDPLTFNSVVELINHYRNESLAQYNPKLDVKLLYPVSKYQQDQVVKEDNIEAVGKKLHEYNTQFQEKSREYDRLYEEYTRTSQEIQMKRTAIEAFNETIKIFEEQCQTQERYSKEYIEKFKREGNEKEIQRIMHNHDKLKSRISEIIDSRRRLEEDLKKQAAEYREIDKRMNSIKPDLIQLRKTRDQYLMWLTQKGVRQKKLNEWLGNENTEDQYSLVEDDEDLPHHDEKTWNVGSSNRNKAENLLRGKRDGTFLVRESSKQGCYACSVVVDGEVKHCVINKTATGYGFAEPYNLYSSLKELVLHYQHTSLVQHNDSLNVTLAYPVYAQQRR
Procedure, shortened: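 Co-expressed mouse p110/p85 PI3-Kα (4 nM stock) acting on PI(4,5)P2 (60 μM stock) with ATP/MgCl2 in HEPES pH 7.4 buffer, 35 min at room temperature, then EDTA stop. PI(3,4,5)P3 product detected by displacement of TAMRA-PIP3 from Grip1 PH domain (FP, 535/580 nm). IC50 from sigmoidal fit of % inhibition.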

| Compound | pIC50 [1] | pIC50 (PI3-Kα) | inhibition at 10 µM (PI3-Kα; at 10 μM) [%] |
| --- | --- | --- | --- |
| CNc1nc(C)c2cc(-c3cnc4[nH]ccc4c3)c(=O)n(C3CCCC3)c2n1 [Compound 115, 8-cyclopentyl-4-methyl-2-(methylamino)-6-(1H-pyrrolo[2,3-b]pyridin-5-yl)pyrido[2,3-d]pyrimidin-7(8H)-one] | 8.42 | 9.12 | – |
| CNc1nc(C)c2cc(-c3cn[nH]c3)c(=O)n(CC3CCOC3)c2n1 (stereo not drawn) [Compound 215, 4-methyl-2-(methylamino)-6-(1H-pyrazol-4-yl)-8-((tetrahydrofuran-3-yl)methyl)pyrido[2,3-d]pyrimidin-7(8H)-one] | 7.66 | 8.22 | – |
| CNc1nc(C)c2cc(-c3cncnc3)c(=O)n(C3CCCC3)c2n1 [Compound 107, 8-Cyclopentyl-4-methyl-2-(methylamino)-6-(pyrimidin-5-yl)pyrido[2,3-d]pyrimidin-7(8H)-one] | 6.52 | 7.64 | – |
| Cc1nc(N)nc2c1cc(-c1cccc(CO)c1)c(=O)n2C1CCOCC1 [Compound 260, 2-amino-6-[3-(hydroxymethyl)phenyl]-4-methyl-8-(tetrahydro-2H-pyran-4-yl)pyrido[23-d]pyrimidin-7(8H)-one] | 7.48 | 8.41 | – |
| Cc1nc(N)nc2c1cc(-c1cnc3[nH]ccc3c1)c(=O)n2CC1CCCO1 (stereo not drawn) [Compound 225, 2-amino-4-methyl-6-(1H-pyrrolo[2,3-b]pyridin-5-yl)-8-((tetrahydrofuran-2-yl)methyl)pyrido[2,3-d]pyrimidin-7(8H)-one] | 7.44 | 8.27 | – |
| CNc1nc(C)c2cc(-c3ccc(OC)nc3)c(=O)n(C3CCC3)c2n1 [Compound 109, 8-Cyclobutyl-6-(6-methoxypyridin-3-yl)-4-methyl-2-(methylamino)pyrido[2,3-d]pyrimidin-7(8H)-one] | 7.23 | 8.20 | 99 |
| CNc1nc(C)c2cc(-c3cccnc3OC)c(=O)n(C3CCCC3)c2n1 [Compound 128, 8-cyclopentyl-6-(2-methoxypyridin-3-yl)-4-methyl-2-(methylamino)pyrido[2,3-d]pyrimidin-7(8H)-one] | 5.45 | 6.56 | – |
| Cc1nc(N)nc2c1cc(-c1cnc3[nH]ccc3c1)c(=O)n2C1CCCC1 [Compound 127, 2-amino-8-cyclopentyl-4-methyl-6-(1H-pyrrolo[2,3-b]pyridin-5-yl)pyrido[2,3-d]pyrimidin-7(8H)-one] | 8.56 | 9.32 | – |
| COc1ncc(-c2cc3c(C)nc(N)nc3n([C@H]3C[C@H](OCCO)C3)c2=O)cc1F [Compound 315, 2-amino-6-(5-fluoro-6-methoxypyridin-3-yl)-8-[trans-3-(2-hydroxyethoxy)cyclobutyl]-4-methylpyrido[2,3-d]pyrimidin-7(8H)-one] | 7.84 | 8.51 | – |

The remaining lines, values ahead:

| pIC50 [1] | pIC50 (PI3-Kα) | inhibition at 10 µM (PI3-Kα; at 10 μM) [%] | Compound |
| --- | --- | --- | --- |
| 8.02 | 8.70 | – | COc1ncc(-c2cc3c(C)nc(N)nc3n(C3CCCC3)c2=O)cn1 [Compound 255, 2-amino-8-cyclopentyl-6-(2-methoxypyrimidin-5-yl)-4-methylpyrido[23-d]pyrimidin-7(8H)-one] |
| 7.72 | 9.00 | – | COc1cc(-c2cc3c(C)nc(N)nc3n(C3CCCC3)c2=O)ccc1O [Compound 137, 2-amino-8-cyclopentyl-6-(4-hydroxy-3-methoxyphenyl)-4-methylpyrido[2,3-d]pyrimidin-7(8H)-one] |
| 6.22 | 7.22 | – | CNc1nc(C)c2cc(C#N)c(=O)n(C3CCCC3)c2n1 [Compound 133, 2-Methylamino-6-carbonitrile-8-cyclopentyl-4-methylpyrido[2,3-d]pyrimidin-7(8H)-one] |
| 5.57 | 6.33 | – | Cc1nc(N)nc2c1cc(-c1ccc(C#N)nc1)c(=O)n2[C@H]1CC[C@H](O)CC1 [Compound 190, 5-[2-amino-8-(trans-4-hydroxycyclohexyl)-4-methyl-7-oxo-7,8-dihydropyrido[2,3-d]pyrimidin-6-yl]pyridine-2-carbonitrile] |
